For this experiment, the target named is Abl (Homo sapiens, UniProt P00519). Nature of the experiment: in vitro kinase assay with active recombinant Abl. It counts as biochemical.
Abl, sequence (P00519 whole entry): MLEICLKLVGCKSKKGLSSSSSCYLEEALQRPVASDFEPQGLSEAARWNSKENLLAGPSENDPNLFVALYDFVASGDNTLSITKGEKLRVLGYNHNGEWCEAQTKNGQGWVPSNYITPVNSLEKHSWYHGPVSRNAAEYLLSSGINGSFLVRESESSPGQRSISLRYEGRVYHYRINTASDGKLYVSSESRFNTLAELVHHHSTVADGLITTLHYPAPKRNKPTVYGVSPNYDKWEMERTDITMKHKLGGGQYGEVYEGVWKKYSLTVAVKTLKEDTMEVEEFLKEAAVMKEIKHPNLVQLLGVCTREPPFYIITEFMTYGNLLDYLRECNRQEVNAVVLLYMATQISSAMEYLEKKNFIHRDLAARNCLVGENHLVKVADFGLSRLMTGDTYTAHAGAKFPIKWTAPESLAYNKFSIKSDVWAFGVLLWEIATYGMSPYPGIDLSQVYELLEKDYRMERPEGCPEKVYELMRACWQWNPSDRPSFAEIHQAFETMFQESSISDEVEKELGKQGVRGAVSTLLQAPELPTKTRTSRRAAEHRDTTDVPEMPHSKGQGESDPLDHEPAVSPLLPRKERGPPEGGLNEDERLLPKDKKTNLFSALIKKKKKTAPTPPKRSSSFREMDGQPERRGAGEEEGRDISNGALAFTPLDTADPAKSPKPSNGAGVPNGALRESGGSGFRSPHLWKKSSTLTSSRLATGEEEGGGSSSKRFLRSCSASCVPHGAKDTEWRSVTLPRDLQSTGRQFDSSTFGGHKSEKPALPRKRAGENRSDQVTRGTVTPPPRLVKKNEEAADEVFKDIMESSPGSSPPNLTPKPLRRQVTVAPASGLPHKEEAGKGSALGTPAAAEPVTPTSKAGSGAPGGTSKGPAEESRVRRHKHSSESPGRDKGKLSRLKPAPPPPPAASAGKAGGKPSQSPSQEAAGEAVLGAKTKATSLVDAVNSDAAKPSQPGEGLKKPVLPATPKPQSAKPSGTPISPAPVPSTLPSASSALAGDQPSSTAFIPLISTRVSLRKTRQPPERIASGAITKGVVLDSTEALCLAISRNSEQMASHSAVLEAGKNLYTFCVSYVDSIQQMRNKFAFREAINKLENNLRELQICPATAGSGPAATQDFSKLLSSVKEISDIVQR

Broadly, the IC50 is the concentration needed to halve the response being measured. `O=C1Nc2ccccc2C1=C1Nc2ccccc2C1=NOCC(O)CO` (stereo not shown) [E804]: the IC50 amounted to 8.7 µM.
